Tests used:
Assay type in all cases: binding, synthetic construct
SP1 = molecular target: T1, SP1; experiment: X-ray crystal structure at […] Å; absorption titration (Kd1 […], Kd2 […]); fluorescence titration ([…])
T1 construct: de novo designed C2-symmetric homodimer, two ZnPPaM per dimer

SP3 = molecular target: T2, SP3; experiment: CD titration (Kd1 […], Kd2 […]); absorption titration (Kd1 […], Kd2 […]); fluorescence titration ([…])
T2 construct: de novo designed C2-symmetric homodimer, two ZnPPaM per dimer

SP2 = molecular target: T3, SP2; experiment: X-ray crystal structure at […] Å; CD titration (Kd1 […], Kd2 […]); absorption titration (Kd1 […], Kd2 […]); fluorescence titration ([…])
T3 construct: de novo designed C2-symmetric homodimer, two ZnPPaM per dimer

## C=Cc1c(C)c2[n]3c1=CC1=NC(=Cc4c(C)c5c([n]4[Zn]3)C(=C3N=C(C=2)[C@@H](C)[C@@H]3CCC(=O)OC)[C@@H](C(=O)OC)C5=O)C(CC)=C1C [ZnPPaM]
SP1
  Kd: 290 nM
SP3
  Kd: 800 nM
SP2
  Kd: 300 nM

— article PMC11213709, “De novo design of proteins housing excitonically coupled chlorophyll special pairs” (Nature Chemical Biology, 2024)
